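1) Cells in 96-well plates. 2) Compound, 48 h, 5 concentrations. 3) Linear interpolation between surrounding doses. 4) Unreached endpoint = highest concentration. GI50 is the concentration that inhibits growth by half.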 Active and inactive are the calls of the source. Cut-off read from the data, not from the text of the source: active = GI50 up to about 1.1 µM and inactive = higher.
What was measured:
Assay in all cases: DTP human tumour cell line panel, 48 h
SK-OV-3 = test system: SK-OV-3
LOX IMVI = test system: LOX IMVI
UACC-62 = test system: UACC-62
U-251 = test system: U-251
IGROV-1 = test system: IGROV-1
NCI-H226 = test system: NCI-H226
RPMI-8226 = test system: RPMI-8226
MOLT-4 = test system: MOLT-4
OVCAR-5 = test system: OVCAR-5
HCT-116 = test system: HCT-116
SR = test system: SR
SW-620 = test system: SW-620
OVCAR-3 = test system: OVCAR-3
SF-539 = test system: SF-539
SNB-75 = test system: SNB-75
MDA-MB-231 = test system: MDA-MB-231
SK-MEL-2 = test system: SK-MEL-2
DU-145 = test system: DU-145
M14 = test system: M14
MDA-MB-435 = test system: MDA-MB-435
786-0 = test system: 786-0
OVCAR-4 = test system: OVCAR-4
Hs-578T = test system: Hs-578T
SF-295 = test system: SF-295
HOP-62 = test system: HOP-62
PC-3 = test system: PC-3
CAKI-1 = test system: CAKI-1
OVCAR-8 = test system: OVCAR-8
A549 = test system: A549
ACHN = test system: ACHN
NCI-H460 = test system: NCI-H460
HOP-92 = test system: HOP-92
SK-MEL-28 = test system: SK-MEL-28
NCI-H23 = test system: NCI-H23
KM12 = test system: KM12
HT-29 = test system: HT-29
SN12C = test system: SN12C
SF-268 = test system: SF-268
CCRF-CEM = test system: CCRF-CEM
A498 = test system: A498
UACC-257 = test system: UACC-257
RXF 393 = test system: RXF 393
EKVX = test system: EKVX
SNB-19 = test system: SNB-19
UO-31 = test system: UO-31
TK-10 = test system: TK-10
MDA-N = test system: MDA-N
HCT-15 = test system: HCT-15
HL-60 = test system: HL-60
COLO 205 = test system: COLO 205
MCF7 = test system: MCF7
K562 = test system: K562
NCI/ADR-RES = test system: NCI/ADR-RES
BT-549 = test system: BT-549
HCC 2998 = test system: HCC 2998
T47D = test system: T47D
SK-MEL-5 = test system: SK-MEL-5
Malme-3M = test system: Malme-3M
NCI-H522 = test system: NCI-H522

N#CC(C#N)=C1CCCS(=O)(=O)c2ccccc21
GI50 (SK-OV-3): > 100 µM (inactive) | GI50 (LOX IMVI): > 100 µM (inactive) | GI50 (UACC-62): > 100 µM (inactive) | GI50 (U-251): > 100 µM (inactive) | GI50 (IGROV-1): > 100 µM (inactive) | GI50 (NCI-H226): > 100 µM (inactive) | GI50 (RPMI-8226): > 100 µM (inactive) | GI50 (MOLT-4): > 100 µM (inactive) | GI50 (OVCAR-5): > 100 µM (inactive) | GI50 (HCT-116): > 100 µM (inactive) | GI50 (SR): > 100 µM (inactive) | GI50 (SW-620): > 100 µM (inactive) | GI50 (OVCAR-3): > 100 µM (inactive) | GI50 (SF-539): > 100 µM (inactive) | GI50 (SNB-75): > 100 µM (inactive) | GI50 (MDA-MB-231): > 100 µM (inactive) | GI50 (SK-MEL-2): > 100 µM (inactive) | GI50 (DU-145): > 100 µM (inactive) | GI50 (M14): > 100 µM (inactive) | GI50 (MDA-MB-435): > 100 µM (inactive) | GI50 (786-0): > 100 µM (inactive) | GI50 (OVCAR-4): > 100 µM (inactive) | GI50 (Hs-578T): > 100 µM (inactive) | GI50 (SF-295): > 100 µM (inactive) | GI50 (HOP-62): > 100 µM (inactive) | GI50 (PC-3): > 100 µM (inactive) | GI50 (CAKI-1): > 100 µM (inactive) | GI50 (OVCAR-8): > 100 µM (inactive) | GI50 (A549): > 100 µM (inactive) | GI50 (ACHN): > 100 µM (inactive) | GI50 (NCI-H460): > 100 µM (inactive) | GI50 (HOP-92): > 100 µM (inactive) | GI50 (SK-MEL-28): > 100 µM (inactive) | GI50 (NCI-H23): > 100 µM (inactive) | GI50 (KM12): > 100 µM (inactive) | GI50 (HT-29): > 100 µM (inactive) | GI50 (SN12C): > 100 µM (inactive) | GI50 (SF-268): > 100 µM (inactive) | GI50 (CCRF-CEM): > 100 µM (inactive) | GI50 (A498): 56.4 µM (inactive) | GI50 (UACC-257): > 100 µM (inactive) | GI50 (RXF 393): > 100 µM (inactive) | GI50 (EKVX): > 100 µM (inactive) | GI50 (SNB-19): > 100 µM (inactive) | GI50 (UO-31): > 100 µM (inactive) | GI50 (TK-10): > 100 µM (inactive) | GI50 (MDA-N): > 100 µM (inactive) | GI50 (HCT-15): > 100 µM | GI50 (HL-60): > 100 µM (inactive) | GI50 (COLO 205): > 100 µM (inactive) | GI50 (MCF7): > 100 µM (inactive) | GI50 (K562): > 100 µM (inactive) | GI50 (NCI/ADR-RES): > 100 µM (inactive) | GI50 (BT-549): > 100 µM (inactive) | GI50 (HCC 2998): > 100 µM (inactive) | GI50 (T47D): > 100 µM (inactive)

C=CC[C@]12C=C(OC)[C@@H](O)[C@](OC)(C(c3cc(OC)c4c(c3)OCO4)[C@H]1C)[C@H]2OC(C)=O (stereo partly specified)
GI50 (SK-OV-3): 61.1 µM (inactive) | GI50 (UACC-62): > 100 µM (inactive) | GI50 (U-251): > 100 µM (inactive) | GI50 (IGROV-1): > 100 µM (inactive) | GI50 (NCI-H226): > 100 µM (inactive) | GI50 (RPMI-8226): > 100 µM (inactive) | GI50 (MOLT-4): 67.5 µM (inactive) | GI50 (OVCAR-5): > 100 µM (inactive) | GI50 (HCT-116): > 100 µM (inactive) | GI50 (SR): > 100 µM (inactive) | GI50 (SW-620): > 100 µM (inactive) | GI50 (OVCAR-3): > 100 µM (inactive) | GI50 (SF-539): > 100 µM (inactive) | GI50 (SNB-75): 40.7 µM (inactive) | GI50 (SK-MEL-5): > 100 µM (inactive) | GI50 (MDA-MB-231): > 100 µM (inactive) | GI50 (SK-MEL-2): > 100 µM (inactive) | GI50 (DU-145): > 100 µM (inactive) | GI50 (M14): > 100 µM (inactive) | GI50 (MDA-MB-435): 94.6 µM (inactive) | GI50 (786-0): > 100 µM (inactive) | GI50 (OVCAR-4): 69.2 µM (inactive) | GI50 (Hs-578T): 22.6 µM (inactive) | GI50 (SF-295): > 100 µM (inactive) | GI50 (HOP-62): > 100 µM (inactive) | GI50 (PC-3): 62.5 µM (inactive) | GI50 (CAKI-1): > 100 µM (inactive) | GI50 (OVCAR-8): > 100 µM (inactive) | GI50 (A549): > 100 µM (inactive) | GI50 (ACHN): > 100 µM (inactive) | GI50 (NCI-H460): > 100 µM (inactive) | GI50 (HOP-92): 83.6 µM (inactive) | GI50 (SK-MEL-28): > 100 µM (inactive) | GI50 (NCI-H23): > 100 µM (inactive) | GI50 (KM12): > 100 µM (inactive) | GI50 (HT-29): > 100 µM (inactive) | GI50 (SN12C): > 100 µM (inactive) | GI50 (SF-268): 8.34 µM (inactive) | GI50 (CCRF-CEM): > 100 µM (inactive) | GI50 (Malme-3M): > 100 µM (inactive) | GI50 (NCI-H522): > 100 µM (inactive) | GI50 (A498): > 100 µM (inactive) | GI50 (UACC-257): > 100 µM (inactive) | GI50 (RXF 393): > 100 µM (inactive) | GI50 (EKVX): > 100 µM (inactive) | GI50 (SNB-19): > 100 µM (inactive) | GI50 (UO-31): 89.3 µM (inactive) | GI50 (TK-10): > 100 µM (inactive) | GI50 (MDA-N): > 100 µM (inactive) | GI50 (HCT-15): > 100 µM | GI50 (HL-60): 91 µM (inactive) | GI50 (COLO 205): > 100 µM (inactive) | GI50 (MCF7): > 100 µM (inactive) | GI50 (K562): > 100 µM (inactive) | GI50 (NCI/ADR-RES): > 100 µM (inactive) | GI50 (BT-549): > 100 µM (inactive) | GI50 (HCC 2998): > 100 µM (inactive) | GI50 (T47D): > 100 µM (inactive)

O=C1NC(=O)/C(=C/c2ccc(S(=O)(=O)N/N=C/c3ccc(Cl)cc3)cc2)N1
GI50 (SK-OV-3): > 100 µM (inactive) | GI50 (LOX IMVI): > 100 µM (inactive) | GI50 (UACC-62): > 100 µM (inactive) | GI50 (U-251): > 100 µM (inactive) | GI50 (IGROV-1): 92.9 µM (inactive) | GI50 (NCI-H226): > 100 µM (inactive) | GI50 (RPMI-8226): > 100 µM (inactive) | GI50 (MOLT-4): > 100 µM (inactive) | GI50 (OVCAR-5): > 100 µM (inactive) | GI50 (HCT-116): > 100 µM (inactive) | GI50 (SR): 61.2 µM (inactive) | GI50 (SW-620): > 100 µM (inactive) | GI50 (OVCAR-3): 65.9 µM (inactive) | GI50 (SNB-75): > 100 µM (inactive) | GI50 (SK-MEL-5): > 100 µM (inactive) | GI50 (MDA-MB-231): > 100 µM (inactive) | GI50 (SK-MEL-2): > 100 µM (inactive) | GI50 (DU-145): > 100 µM (inactive) | GI50 (M14): > 100 µM (inactive) | GI50 (MDA-MB-435): > 100 µM (inactive) | GI50 (786-0): > 100 µM (inactive) | GI50 (OVCAR-4): > 100 µM (inactive) | GI50 (Hs-578T): > 100 µM (inactive) | GI50 (SF-295): > 100 µM (inactive) | GI50 (HOP-62): > 100 µM (inactive) | GI50 (PC-3): > 100 µM (inactive) | GI50 (CAKI-1): > 100 µM (inactive) | GI50 (OVCAR-8): > 100 µM (inactive) | GI50 (A549): > 100 µM (inactive) | GI50 (ACHN): > 100 µM (inactive) | GI50 (NCI-H460): > 100 µM (inactive) | GI50 (HOP-92): 78.5 µM (inactive) | GI50 (SK-MEL-28): > 100 µM (inactive) | GI50 (NCI-H23): > 100 µM (inactive) | GI50 (KM12): > 100 µM (inactive) | GI50 (HT-29): > 100 µM (inactive) | GI50 (SN12C): > 100 µM (inactive) | GI50 (SF-268): > 100 µM (inactive) | GI50 (CCRF-CEM): > 100 µM (inactive) | GI50 (Malme-3M): > 100 µM (inactive) | GI50 (A498): 23.6 µM (inactive) | GI50 (UACC-257): > 100 µM (inactive) | GI50 (RXF 393): > 100 µM (inactive) | GI50 (EKVX): > 100 µM (inactive) | GI50 (SNB-19): > 100 µM (inactive) | GI50 (UO-31): > 100 µM (inactive) | GI50 (TK-10): > 100 µM (inactive) | GI50 (MDA-N): > 100 µM (inactive) | GI50 (HCT-15): > 100 µM | GI50 (HL-60): 72.9 µM (inactive) | GI50 (COLO 205): > 100 µM (inactive) | GI50 (MCF7): > 100 µM (inactive) | GI50 (K562): > 100 µM (inactive) | GI50 (NCI/ADR-RES): > 100 µM (inactive) | GI50 (BT-549): > 100 µM (inactive) | GI50 (HCC 2998): > 100 µM (inactive) | GI50 (T47D): > 100 µM (inactive)
